Measured values reported in article PMC7851395 (British Journal of Cancer, 2020).

Columns and labels:
[1] = test system: human umbilical vein endothelial cell HUVEC; assay: MTT cytotoxicity assay, normal HUVEC cells; type: cell-based
Method: The cytotoxicity and viability of human NSCLC cells and normal cells were determined by MTT assay. MTT assay was performed as described previously.[22] MTT assay was used to determine the cell cytotoxicity and viability in human NSCLC cells. Cells (5 × 10^3 cells/well) were plated in 96-well plates and attached overnight. After the proper treatment, the MTT solution was added at 25 µL/well and incubated at 37 °C for 4 h. The formazan crystals were dissolved in 150 µL of DMSO, and the optical density (OD) was measured using a Microplate Reader at 490 nm. The cell viability was calculated by the following formula: viability = (average OD values of treatment wells/average OD values of vehicle control wells) × 100%. And half-maximal inhibitory concentration (IC50) values were determined by GraphPad Pro Prism 7.0.

human NSCLC cells = assay: Colony-formation assay; type: cell-based; conditions: 50, 100, 200 nM for 24 h, colonies after 7 days
Method: The human NSCLC cells and normal cells were seeded at 1000 cells/well on six-well plates, placed in 5% CO2 atmosphere and cultured overnight at 37 °C. DMSO (Control) and acetyl-bufalin (50, 100, 200 nM) were added to the cells for 24 h. The fresh medium was replaced every 2 days to maintain the growth of cells for 7 days. Colonies were washed with phosphate-buffered saline (PBS), fixed with 4% paraformaldehyde at room temperature for 15 min, washed with purified water for three times and stained with Crystal violet for 10 min. Each experiment was in triplicate, and three independent experiments were carried out.

H460 xenograft = type: in vivo, BALB/c nude mice; conditions: 2 mg/kg i.p. every other day
Method: All animal procedures were done accordingly with the Institutional laboratory animal research guidelines and were approved by Wenzhou Medical University Animal Policy and Welfare Committee. Female athymic BALB/c nude mice (5–6 weeks old) and immune-defective non-obese […] diabetic severe combined immunodeficiency (NOD-SCID) mice (6–8 weeks old) were purchased from the Vital River Experimental Animal Center (Beijing, China). All the mice were housed under 12 h light–dark cycles at 25 °C and free for water and diet. For the xenograft model, the H460 cells (5 × 10^6 cells were mixed with an equal volume of PBS and Matrigel in 100 μL) were implanted on the hind flank of nude mice. Once tumour volumes reached ~50 mm^3, 24 mice were divided into four experimental groups (six mice per group, no differences in mean body weights or tumour volumes between the groups) and intraperitoneal injection with 2 mg/kg SNS-032 (a recognised CDK9 inhibitor), bufalin and acetyl-bufalin every other day. Tumour volume was measured as V = (L × W × W)/2, in which L and W represent the length and width of tumour. Animals were killed by cervical dislocation once the tumour volume reached 1000 mm^3. The tumours, hearts, livers, kidneys and lungs were removed for use in the histology and western blot analysis.

PC-9 cells = assay: Wound-healing migration assay; type: cell-based, human; conditions: 25, 50, 100 nM, 48 h
Method: The ability of cell migration was evaluated by wound-healing assay. The cells grew to 80–90% confluence in six-well plates and then scraped the cell monolayer at the centre of the wells with the tip of a sterile 10 μL pipette to form a clean, straight wound area. Then, the wells were washed with PBS to remove detached cells from the plates. After that, cells were cultured in serum-free RPMI medium with vehicle control or acetyl-bufalin (25, 50, 100 nM). The migration of cells to the wound area was photographed at the 0, 24 and 48 h timepoints with a microscope and imaging system (Leica, Wetzlar, Germany).

P-STAT3 = assay: Western blot of STAT3 phosphorylation; type: cell-based, human; conditions: H460, A549 and PC-9 cells, 12 h, concentration-dependently
Method: Tissue proteins were extracted with tissue protein lysate buffer. Cells were grown to different densities and extracted with cell protein lysate buffer. The protein was mixed with loading buffer and boiled for 10 min at 100 °C, then loaded and separated by 10% or 12% sodium dodecyl sulfate-polyacrylamide gel (SDS-PAGE) and then transferred onto a PVDF membrane blocking with 5% skim milk. The blots were incubated overnight with specific primary antibodies at 4 °C. On the second day, after washing with TBST (a mixture of tris-buffered saline (TBS) and Tween 20) three times, the […] membranes were incubated with horseradish peroxidase-conjugated secondary antibodies for 1 h. The immunoreactive bands were visualised with enhanced chemiluminescence reagent.

STAT3 = STAT3 luciferase-report assay; type: cell-based, human; conditions: PC-9 and H460 cells, 0-200 nM, 12 h
Method: STAT3 activation was detected by the STAT3 luciferase reporter plasmid (PGLSTAT3-LUC), as was previously described.[23] Simply put, PC-9 and H460 cells were seeded in 24-well plates and incubated for 24 h before transfection. The cells were grown to different densities and co-transfected with pGLSTAT3-Luc and pRL-TK (a plasmid encoding Renilla luciferase) for 6 h using Lipofectamine 3000 (Invitrogen, Carlsbad, CA, USA). Finally, the cells were treated with different concentrations of […] for 12 h. Luciferase activity was assessed by SpectraMax ID3 (Molecular Devices, San Jose, CA, USA). The inhibition of STAT3 activity by acetyl-bufalin was calculated as the ratio between the value of firefly and Renilla luciferase activity. Each experiment was done in triplicate in three independent experiments.

[2] = Pharmacokinetic study in rat plasma (LC-MS/MS); type: in vivo, S.D. rats
Method: For the pharmacokinetic study, female S.D. rats (body weight 200 ± 10 g) have fasted overnight with free access to water before the experiment. Twelve rats were randomly divided into four groups. The time schedule included eight timepoints, and three S.D. rats were sampled at each time-point. Bufalin and acetyl-bufalin were administered intravenously and intraperitoneally to the rats at the dose of 0.25 mg/kg and 2 mg/kg, respectively. The animals had free access to water during the experiment. Blood samples were collected from the retro-orbital plexus of each rat at 0.083, 0.25, 0.5, 1, 2, 4, 6, 8, 12, 24 h after administration. Plasma was separated from the blood after centrifugation at 6000×g for 10 min and frozen at −20 °C until analysis. In total, 20 µL of standard samples in duplicate, quality control samples in duplicate and rat plasma samples were mixed with 60 µL of ethyl acetate containing IS (200 ng/mL of tolbutamide, 50 ng/mL of propranolol and 500 ng/mL of Dic) in EP tubes. After the mixture was vortexed for 1 min, then centrifuged for 10 min (13,000 rpm, 4 °C), transferred 50 µL supernatant to a 96-well plate with 150 µL purred water, shacked for 10 min and finally injected 5 µL into liquid chromatographic-tandem mass spectrometry (LC-MS/MS) system for analysis.

CC(=O)OC1CCC2(C)C(CCC3C2CCC2(C)C(c4ccc(=O)oc4)CCC32O)C1 (stereo not shown) [acetyl-bufalin]
cytotoxic effect on normal cells [1]: low toxicity
NSCLC cell cloning ability (human NSCLC cells): inhibited dose-dependently
gross toxicities on hearts, livers, kidneys or lungs (H460 xenograft; H&E staining): no gross toxicities
tumour growth (weight and volume) (H460 xenograft; compared with vehicle): significantly inhibited tumour growth
comparison of inhibitory effect between treatments (H460 xenograft; versus SNS-032 and bufalin): best inhibitory effect
PC-9 cell migration (PC-9 cells): markedly blocked
P-STAT3 protein levels (P-STAT3): reduced
P-STAT3 activation (luciferase reporter) (STAT3): significantly inhibited
elimination in blood ([2]; 0.25 mg/kg i.v. and 2 mg/kg i.p.): much slower than bufalin
Cmax ([2]; acetyl-bufalin and bufalin formed from it, compared with bufalin dosing): smaller
